pKi: −log10 of the molar value. Where two headings read alike, the source gives them in different places. Numbered stars: 1 amine (or outer) side, 2 acyl side, 3 side chain; on linkers, the order of the positions; unused ones are H or OH. Bridge positions count the residues as written; N and C are the ends. Square brackets hold non-standard residues; d marks the D form. Peptide text beside a SMILES is read from it. * marks the point of attachment. X2 = CN1C[C@H](CSCC(=O)*)C[C@@H]2c3cccc4[nH]cc(c34)C[C@H]21; Pipz(1-CH2CO,4-CH2CH2NH) = O=C(CN1CCN(CCN[*:1])CC1)[*:2]; Abu = CC[C@H](N)C(=O)O
Columns and labels:
hDA2 = assay: Dopamine-2 receptor radioligand binding assay; parameters: species or system human; conditions: [3H]spiperone
hsst3 = molecular target: T1, hsst3 (Homo sapiens, UniProt P32745); assay: Somatostatin receptor radioligand binding assay, hsst3
T1 construct: expressed in transfected cells
T1 sequence (P32745 whole entry): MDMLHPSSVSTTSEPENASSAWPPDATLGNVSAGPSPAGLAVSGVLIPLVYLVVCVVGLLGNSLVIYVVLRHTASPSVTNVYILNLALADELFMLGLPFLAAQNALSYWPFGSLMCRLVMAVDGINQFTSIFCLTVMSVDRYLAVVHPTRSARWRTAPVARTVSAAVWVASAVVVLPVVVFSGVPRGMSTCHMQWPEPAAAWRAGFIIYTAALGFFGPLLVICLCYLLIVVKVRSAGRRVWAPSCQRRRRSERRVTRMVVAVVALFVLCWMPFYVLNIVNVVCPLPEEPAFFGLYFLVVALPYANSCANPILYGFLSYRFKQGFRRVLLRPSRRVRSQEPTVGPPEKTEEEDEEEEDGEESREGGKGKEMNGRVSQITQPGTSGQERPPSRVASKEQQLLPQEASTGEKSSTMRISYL
Method in brief: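 Membranes from CHO-K1 cells stably transfected with each human SSTR subtype, incubated 90 min at 25 °C with 0.05 nM [125I-Tyr11]SS-14 in 50 mM HEPES pH 7.4 with BSA, MgCl2 and protease inhibitors; filtration read-out. Nonspecific binding with 1000 nM SS-14; Ki values reported.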

hsst1 = molecular target: T2, hsst1 (Homo sapiens, UniProt P30872); assay: Somatostatin receptor radioligand binding assay, hsst1
T2 construct: expressed in transfected cells
T2 sequence (P30872 whole entry): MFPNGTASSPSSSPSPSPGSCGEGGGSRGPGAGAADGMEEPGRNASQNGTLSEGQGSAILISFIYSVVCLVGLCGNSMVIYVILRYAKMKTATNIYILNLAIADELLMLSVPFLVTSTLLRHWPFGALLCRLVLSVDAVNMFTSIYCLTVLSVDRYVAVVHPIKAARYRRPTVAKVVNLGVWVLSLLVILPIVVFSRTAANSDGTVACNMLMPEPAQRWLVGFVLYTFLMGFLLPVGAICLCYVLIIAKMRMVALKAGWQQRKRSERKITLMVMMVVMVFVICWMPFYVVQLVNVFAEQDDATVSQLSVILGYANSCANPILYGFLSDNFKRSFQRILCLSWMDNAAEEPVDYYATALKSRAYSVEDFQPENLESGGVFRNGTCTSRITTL
Experimental: Specificity and selectivity of the somatostatin analogues used to synthesize the somatostatin-dopamine chimers were determined by a radioligand binding assay on CHO-K1 cells stably transfected with each of the SSTR subtypes, as follows. Somatostatin analogs are also described in U.S. Patent Application Publication No. 02210006790. The complete coding sequences of genomic fragments of the SSTR 1 (e.g., Genbank accession No. M81829), SSTR 2 (e.g., Genbank accession No. M81830), SSTR 3 (e.g., Genbank accession No. L07062), and SSTR 4 (e.g., Genbank accession No. AL049651) genes and a cDNA clone for SSTR 5 (e.g., Genbank accession No. D16827) was subcloned into the mammalian expression vector pCMV (Life Technologies, Milano, Italy). Other SSTR sequences are known to the skilled artisan. Clonal cell lines stably expressing SSTR's 1-5 were obtained by transfection into CHO-K1 cells (ATCC, Manassas, Va., USA) using the calcium phosphate co-precipitation method (Davis L, et al., 1994 In: Basic methods in Molecular Biology, 2nd edition, Appleton & Lange, Norwalk, Conn., USA: 611-646). The plasmid pRSV-neo (ATCC) was included as a selectable marker. Clonal cell lines were selected in RPMI 1640 media containing 0.5 mg/mL of G418 (Life Technologies, Milano, Italy), ring cloned, and expanded into culture.
Membranes for in vitro receptor binding assays were obtained by homogenizing the CHO-K1 cells expressing the SSTR's subtypes in ice-cold 50 mM Tris-HCl and centrifuging twice at 39,000 g (10 min), with an intermediate resuspension in fresh buffer. The final pellets were resuspended in 10 mM Tris-HCl for assay.
For the SSTR 1, 3, 4, and 5 assays, aliquots of the membrane preparations were incubated 90 minutes at 25° C. with 0.05 nM [^125I-Tyr11]SS-14 in 50 mM HEPES (pH 7.4) containing 10 mg/mL BSA, 5 mM MgCl2, 200 KIU/mL Trasylol, 0.02 mg/mL bacitracin, and 0.02 mg/mL phenylmethylsuphonyl fluoride. The final assay volume was 0.3 mL.
For the SSTR 2 assay, 0.05 nM [^125I]MK-678 was employed as the radioligand and the incubation time was 90 minutes at 25° C. The incubations were terminated by rapid filtration through GF/C glass microfiber filters (Whatman Co.) (pre-soaked in 0.3% polyethylenimine) using a BRANDEL filtration manifold. Each tube and filter was washed three times with 5 mL aliquots of ice-cold buffer. Specific binding was defined as the total radioligand bound minus that bound in the presence of 1000 nM SS-14 for SSTR 1, 3, 4, and 5, or 1000 nM MK-678 for SSTR2.
(§1) Using the discussed assays, the inhibition constants (Ki) for the five human somatostatin receptors (hSSTR1-hSSTR5) and the dopamine-2 receptor (hUTII and hDA2) were measured for the exemplified somatostatin-dopamine conjugates, as follows: […]

hsst2 = molecular target: T3, hsst2 (Homo sapiens, UniProt P30874); assay: Somatostatin receptor radioligand binding assay, hsst2; conditions: CHO-K1 membranes, [125I]MK-678; read-out: hsst2 Ki
T3 construct: expressed in transfected cells
T3 sequence (P30874 whole entry): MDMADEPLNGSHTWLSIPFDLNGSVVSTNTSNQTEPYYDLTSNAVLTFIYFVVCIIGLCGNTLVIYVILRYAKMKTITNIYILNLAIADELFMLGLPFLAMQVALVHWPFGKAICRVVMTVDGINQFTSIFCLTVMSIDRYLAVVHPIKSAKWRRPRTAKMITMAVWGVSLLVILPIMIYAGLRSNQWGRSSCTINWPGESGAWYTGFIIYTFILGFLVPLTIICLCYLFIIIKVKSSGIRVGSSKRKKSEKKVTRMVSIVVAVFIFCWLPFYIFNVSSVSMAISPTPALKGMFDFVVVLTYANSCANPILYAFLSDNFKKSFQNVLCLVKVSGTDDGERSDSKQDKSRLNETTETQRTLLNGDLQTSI
Method in brief: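 Membranes from CHO-K1 cells stably expressing human SSTR2, in 10 mM Tris-HCl, incubated 90 min at 25 °C with 0.05 nM [125I]MK-678. Bound ligand collected by filtration on PEI-soaked GF/C filters; nonspecific binding defined with 1000 nM MK-678.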

hUTII = molecular target: T4, hUTII (Homo sapiens, UniProt Q9UKP6); assay: hUTII inhibition constant; assay type: binding; conditions: read-out: hUTII Ki
T4 sequence (Q9UKP6 1-389): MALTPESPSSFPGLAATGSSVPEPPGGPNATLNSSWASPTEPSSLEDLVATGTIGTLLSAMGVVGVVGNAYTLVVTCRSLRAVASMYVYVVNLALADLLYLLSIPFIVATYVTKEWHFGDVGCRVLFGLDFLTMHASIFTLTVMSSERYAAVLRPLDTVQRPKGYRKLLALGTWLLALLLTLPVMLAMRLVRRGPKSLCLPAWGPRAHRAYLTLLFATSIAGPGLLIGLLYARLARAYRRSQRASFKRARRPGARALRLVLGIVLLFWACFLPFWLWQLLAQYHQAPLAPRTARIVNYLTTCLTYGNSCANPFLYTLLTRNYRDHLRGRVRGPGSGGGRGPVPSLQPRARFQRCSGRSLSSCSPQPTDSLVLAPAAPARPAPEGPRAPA
Experimental: as §1

hsst5 = molecular target: T5, hsst5 (Homo sapiens, UniProt P35346); assay: Somatostatin receptor radioligand binding assay, hsst5; conditions: CHO-K1 membranes, [125I-Tyr11]SS-14
T5 construct: expressed in transfected cells
T5 sequence (P35346 whole entry): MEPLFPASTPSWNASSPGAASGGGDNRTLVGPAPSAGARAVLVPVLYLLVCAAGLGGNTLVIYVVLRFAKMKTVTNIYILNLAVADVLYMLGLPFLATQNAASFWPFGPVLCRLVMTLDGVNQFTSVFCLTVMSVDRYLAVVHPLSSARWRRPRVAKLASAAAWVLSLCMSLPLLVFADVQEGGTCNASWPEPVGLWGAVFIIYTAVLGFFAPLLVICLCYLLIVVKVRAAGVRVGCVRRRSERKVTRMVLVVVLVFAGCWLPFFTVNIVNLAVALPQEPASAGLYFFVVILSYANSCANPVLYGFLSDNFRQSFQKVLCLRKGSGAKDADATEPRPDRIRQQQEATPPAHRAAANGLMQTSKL
Method in brief: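 Membranes from CHO-K1 cells stably expressing hsst5, incubated 90 min at 25 °C with 0.05 nM [125I-Tyr11]SS-14 in 50 mM HEPES pH 7.4 with BSA, MgCl2 and protease inhibitors. Bound ligand collected by filtration. Non-specific binding defined with 1000 nM SS-14.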

[1] = CHO-K1 membranes, [125I-Tyr11]SS-14, read-out: hsst3 Ki
[2] = CHO-K1 membranes, [125I-Tyr11]SS-14, read-out: hsst1 Ki

pKi (hDA2)	pKi (hsst3; [1])	pKi (hsst1; [2])	pKi (hsst2)	pKi (hUTII)	pKi (hsst5; read-out: hsst5 Ki)	Compound	pKi (hsst3)	pKi (hsst1)	pKi (hsst5; hsst5 Ki)
7.62	7.31	6.16	9.82	6.21	7.80	CC[C@@H]1NC(=O)[C@H](CCCCN)NC(=O)[C@@H](Cc2c[nH]c3ccccc23)NC(=O)[C@H](Cc2ccc(O)cc2)NC(=O)[C@@H](NC(=O)[C@@H](Cc2ccccc2)NC(=O)CSC[C@@H]2C[C@@H]3c4cccc5[nH]cc(c45)C[C@H]3N(C)C2)CSSC[C@@H](C(=O)N[C@H](C(N)=O)[C@@H](C)O)NC1=O [Example 30]	–	–	–
6.56	6.92	6.00	9.47	6.29	7.69	CC[C@@H]1NC(=O)[C@H](CCCCN)NC(=O)[C@@H](Cc2c[nH]c3ccccc23)NC(=O)[C@H](Cc2ccc(O)cc2)NC(=O)[C@@H](NC(=O)[C@@H](Cc2ccccc2)NC(=O)COCCOCCNC(=O)COCCOCCNC(=O)CSC[C@@H]2C[C@@H]3c4cccc5[nH]cc(c45)C[C@H]3N(C)C2)CSSC[C@@H](C(=O)N[C@H](C(N)=O)[C@@H](C)O)NC1=O [Example 42]	–	–	–

Further lines, the molecule ahead of its results:

Compound	pKi (hDA2)	pKi (hsst3; [1])	pKi (hsst1; [2])	pKi (hsst2)	pKi (hUTII)	pKi (hsst5; read-out: hsst5 Ki)	pKi (hsst3)	pKi (hsst1)	pKi (hsst5; hsst5 Ki)
CCCN1C[C@H](CSCC(=O)NCCN2CCN(CC(=O)N[C@H](Cc3ccccc3)C(=O)N[C@H]3CSSC[C@@H](C(=O)N[C@H](C(N)=O)[C@@H](C)O)NC(=O)[C@H](CC)NC(=O)[C@H](CCCCN)NC(=O)[C@@H](Cc4c[nH]c5ccccc45)NC(=O)[C@H](Cc4ccc(O)cc4)NC3=O)CC2)C[C@@H]2c3cccc4[nH]cc(c34)C[C@H]21 [Example 24]	6.85	6.81	6.00	9.43	5.82	7.62	–	–	–
CC[C@@H]1NC(=O)[C@H](CCCCN)NC(=O)[C@@H](Cc2c[nH]c3ccccc23)NC(=O)[C@H](Cc2ccc(O)cc2)NC(=O)[C@@H](NC(=O)[C@@H](Cc2ccc(O)cc2)NC(=O)[C@@H](Cc2ccc(O)cc2)NC(=O)[C@H](CCCCN)NC(=O)CN2CCN(CCNC(=O)CN3CCN(CCNC(=O)CSC[C@@H]4C[C@@H]5c6cccc7[nH]cc(c67)C[C@H]5N(C)C4)CC3)CC2)CSSC[C@@H](C(=O)N[C@H](C(N)=O)[C@@H](C)O)NC1=O [Example 28] (X2-[Pipz(1-CH2CO,4-CH2CH2NH)][Pipz(1-CH2CO,4-CH2CH2NH)]K[dY][dY]CY[dW]K[Abu]CT-NH2; disulfide 6-11)	6.30	–	–	9.96	6.25	–	6.81	6.18	8.29
CCCN1C[C@H](CSCC(=O)N[C@H](Cc2ccccc2)C(=O)N[C@H]2CSSC[C@@H](C(=O)N[C@H](C(N)=O)[C@@H](C)O)NC(=O)[C@H](CC)NC(=O)[C@H](CCCCN)NC(=O)[C@@H](Cc3c[nH]c4ccccc34)NC(=O)[C@H](Cc3ccc(O)cc3)NC2=O)C[C@@H]2c3cccc4[nH]cc(c34)C[C@H]21 [Example 31]	7.59	7.07	6.16	10.00	6.30	7.64	–	–	–
CC[C@@H]1NC(=O)[C@H](CCCCN)NC(=O)[C@@H](Cc2c[nH]c3ccccc23)NC(=O)[C@H](Cc2ccc(O)cc2)NC(=O)[C@@H](NC(=O)[C@@H](Cc2ccccc2)NC(=O)COCCOCCNC(=O)CSC[C@@H]2C[C@@H]3c4cccc5[nH]cc(c45)C[C@H]3N(C)C2)CSSC[C@@H](C(=O)N[C@H](C(N)=O)[C@@H](C)O)NC1=O [Example 40]	6.59	7.15	6.00	9.49	6.65	7.77	–	–	–

Source: patent US20110065632A1, “PHARMACEUTICAL COMPOSITIONS OF SOMATOSTATIN-DOPAMINE CONJUGATES” (priority 2008, published 2011)
